From US12486300B2, “Mithramycin oxime derivatives having increased selectivity and anti-cancer activity” (University of Kentucky Research Foundation, priority 2018, dated 2025)

Key:
Type in all cases: cell-based
[1] = system: TC32 Ewing sarcoma cells, expressing EWS-FLI1; experiment: Growth inhibition assay, TC32 cells; conditions: for TC32 vs. PC3 / IC50: Table 1C; for TC32 vs. PC3: cellular selectivity; for IC50: read-out: IC50 TC-32; for EC50: Table 1D, read-out: TC-32 Mean EC50; for PC:TC32 (cellular selectivity): ratio of GI50 PC3 to TC32
[2] = system: PC3 Prostate Cancer Cells; experiment: Growth inhibition assay, PC3 cells; conditions: for IC50: Table 1C; for EC50: Table 1D
Protocol: (§1) Growth inhibition assay to assess cytotoxicity in ETS vs non-ETS expressing cells. Cells were seeded in clear 96-well plates (VWR, Radnor, PA). Seeding densities were optimized for each cell line to support 5 days of linear growth. Following a 24 hours attachment period, cells in duplicate wells were treated with half-log increments of respective compounds (0 nM and 0.3 nM-10 μM). Working stocks were prepared from an initial 10 mM drug stock diluted in either 100% ethanol or dimethyl sulfoxide (DMSO). All wells contained a final concentration of 0.1% (v/v) respective organic solvent. Immediately following treatment, cell viability was measured for vehicle control (Day 0) wells. Cell viability was measured in the remaining wells after 72 hours of incubation with compound or vehicle control (Day 3).
(§2) Percent viability, relative to the initial cell seeding concentration, was calculated by ((TreatmentDay3−Vehicle ControlDay0)/(Vehicle ControlDay3−Vehicle ControlDay0))×100. Percent cell viability was plotted as a function of compound concentration (Log [M]) and the data were fit using a 3-parameter non-linear model with fixed Hill slope constant and 4-parameter non-linear model with variable Hill slope constant. The model with the best curve fit was used to estimate the GI50 in GraphPad Prism 7.0 software (GraphPad Software, La Jolla, CA). The 3-parameter equation used was Y=Bottom+(Top−Bottom)/(1+10[…]((X−Log[IC50]))). The 4-parameter equation used was Y=Bottom+(Top−Bottom)/(1+10[…]((Log[IC50]−X)*Hillslope)). Top and Bottom are plateaus in the units of the Y-axis (response). IC50 is the response (Y-axis) halfway between Top and Bottom plateaus.
(§3) All compounds were tested at least once in multi-well replicates and each experiment included one a control compound (i.e., MTM) to ensure the stable response of the cell lines. The selectivity index was estimated by determining the ratio of GI50 estimates between ETS fusion negative and ETS fusion positive cell lines.

[3] = system: G-401 (ATTC Cat. No., CRL-1441); Rhabdoid tumor of the kidney; experiment: Growth inhibition assay, G-401 cells; conditions: for IC50: Table 1C; for EC50: Table 1D
Protocol: as §1, with “3). For viability measurements, 0.1 mM resazurin (Sigma, St. Louis, MO) was added to wells and following 3 hours of incubation at 37° C., fluorescence readings ([…]) were recorded using a SpectraMax M5 plate reader (Molecular Devices, Sunnyvale, CA).” for “3).”
as §2
as §3, with “GI50 values were determined by pooling all available experiments and reported with 95% confidence interval, calculated from GraphPad Prism 7.0 software curve fit. All” for “All”

[4] = system: A-204 (ATTC Cat. No., HTB-82); Rhabdomyosarcoma (embryonal); experiment: Growth inhibition assay, A-204 cells; conditions: for IC50: Table 1C; for EC50: Table 1D
Protocol: as §1, with “3). For viability measurements, 0.1 mM resazurin (Sigma, St. Louis, MO) was added to wells and following 3 hours of incubation at 37° C., fluorescence readings ([…]) were recorded using a SpectraMax M5 plate reader (Molecular Devices, Sunnyvale, CA).” for “3).”
as §2
as §3, with “GI50 values were determined by pooling all available experiments and reported with 95% confidence interval, calculated from GraphPad Prism 7.0 software curve fit. All” for “All”

[5] = system: RH30 muscle rhabdomyosarcoma; experiment: Growth inhibition assay, RH30 cells; conditions: Table 1D
Protocol: as §1, with “3). For viability measurements, 0.1 mM resazurin (Sigma, St. Louis, MO) was added to wells and following 3 hours of incubation at 37° C., fluorescence readings ([…]) were recorded using a SpectraMax M5 plate reader (Molecular Devices, Sunnyvale, CA).” for “3).”
as §2
as §3, with “GI50 values were determined by pooling all available experiments and reported with 95% confidence interval, calculated from GraphPad Prism 7.0 software curve fit. All” for “All”

U-2 OS bone osteosarcoma = experiment: Growth inhibition assay, U-2 OS cells; conditions: Table 1D
Protocol: as §1, with “3). For viability measurements, 0.1 mM resazurin (Sigma, St. Louis, MO) was added to wells and following 3 hours of incubation at 37° C., fluorescence readings ([…]) were recorded using a SpectraMax M5 plate reader (Molecular Devices, Sunnyvale, CA).” for “3).”
as §2
as §3, with “GI50 values were determined by pooling all available experiments and reported with 95% confidence interval, calculated from GraphPad Prism 7.0 software curve fit. All” for “All”

Q: COC(C(=NOCC(=O)NC(Cc1c[nH]c2ccccc12)C(=O)N1CCOCC1)C(O)C(C)O)C1Cc2cc3cc(OC4CC(OC5CC(O)C(O)C(C)O5)C(O)C(C)O4)c(C)c(O)c3c(O)c2C(=O)C1OC1CC(OC2CC(OC3CC(C)(O)C(O)C(C)O3)C(O)C(C)O2)C(O)C(C)O1 (stereo not shown) [MTM102] was tested. Which “TC32 vs. PC3” value [1] did it give?
A: 17×

Q: And the IC50 [1]?
A: 156 nM

Q: What about the EC50 [1] of the same molecule?
A: 162 nM

Q: And the IC50 [2]?
A: 2700 nM

Q: What about the EC50 [2] of the same molecule?
A: 1650 nM

Q: What about the IC50 [3] of the same molecule?
A: 514 nM

Q: And the EC50 [3]?
A: 591 nM

Q: And the IC50 [4]?
A: 2300 nM

Q: And the EC50 [4]?
A: 2740 nM

Q: Which EC50 [1] does the source give for CCN(CC)C(=O)C(Cc1c[nH]c2ccccc12)NC(=O)CON=C(C(O)C(C)O)C(OC)C1Cc2cc3cc(OC4CC(OC5CC(O)C(O)C(C)O5)C(O)C(C)O4)c(C)c(O)c3c(O)c2C(=O)C1OC1CC(OC2CC(OC3CC(C)(O)C(O)C(C)O3)C(O)C(C)O2)C(O)C(C)O1 (stereo not shown) [MTM103] here?
A: 23.5 nM

Q: And the EC50 [2]?
A: 91.3 nM

Q: What about the EC50 [3] of the same molecule?
A: 25.5 nM

Q: What about the EC50 [4] of the same molecule?
A: 194 nM

Q: What about the EC50 [5] of the same molecule?
A: 29.4 nM

Q: How did the “TC32 vs. PC3” value [1] turn out when COC(C(=NOCC(=O)NC(Cc1c[nH]c2ccccc12)C(=O)N1CCC1)C(O)C(C)O)C1Cc2cc3cc(OC4CC(OC5CC(O)C(O)C(C)O5)C(O)C(C)O4)c(C)c(O)c3c(O)c2C(=O)C1OC1CC(OC2CC(OC3CC(C)(O)C(O)C(C)O3)C(O)C(C)O2)C(O)C(C)O1 (stereo not shown) [MTM104] was run?
A: 8×

Q: What about the IC50 [1] of the same molecule?
A: 87 nM

Q: And the EC50 [1]?
A: 91.7 nM

Q: And the IC50 [2]?
A: 730 nM

Q: What about the EC50 [2] of the same molecule?
A: 671 nM

Q: What about the IC50 [3] of the same molecule?
A: 219 nM

Q: What about the EC50 [3] of the same molecule?
A: 222 nM

Q: What about the IC50 [4] of the same molecule?
A: 864 nM

Q: What about the EC50 [4] of the same molecule?
A: 883 nM

Q: And the EC50 [5]?
A: 295 nM

Q: And the EC50 (U-2 OS bone osteosarcoma)?
A: > 10000 nM

Q: How did the EC50 [1] turn out when COC(C(=NOCC(=O)NC(Cc1c[nH]c2ccccc12)C(=O)N1CC(C)(C)C1)C(O)C(C)O)C1Cc2cc3cc(OC4CC(OC5CC(O)C(O)C(C)O5)C(O)C(C)O4)c(C)c(O)c3c(O)c2C(=O)C1OC1CC(OC2CC(OC3CC(C)(O)C(O)C(C)O3)C(O)C(C)O2)C(O)C(C)O1 (stereo not shown) [MTM105] was run?
A: 29.4 nM

Q: What about the EC50 [2] of the same molecule?
A: 177 nM

Q: What about the EC50 [3] of the same molecule?
A: 23.4 nM

Q: What about the EC50 [5] of the same molecule?
A: 45.9 nM

Q: What about the EC50 (U-2 OS bone osteosarcoma) of the same molecule?
A: > 10000 nM

Q: For CNC(=O)[C@H](Cc1c[nH]c2ccccc12)NC(=O)CO/N=C(\[C@@H](O)[C@@H](C)O)[C@@H](OC)[C@@H]1Cc2cc3cc(O[C@H]4C[C@@H](O[C@H]5C[C@@H](O)[C@H](O)C(C)O5)[C@H](O)C(C)O4)c(C)c(O)c3c(O)c2C(=O)[C@H]1O[C@H]1C[C@@H](O[C@H]2C[C@@H](O[C@H]3C[C@](C)(O)[C@H](O)C(C)O3)[C@H](O)C(C)O2)[C@H](O)C(C)O1 (stereo partly shown) [MTM (40)], which EC50 [1] is on record?
A: 414 nM

Q: What about the “PC:TC32 (cellular selectivity)” value [1] of the same molecule?
A: 11.8

Q: And the EC50 [2]?
A: 2900 nM

Q: And the EC50 [3]?
A: 40.2 nM

Q: And the EC50 [4]?
A: 256 nM

Q: And the EC50 [5]?
A: 1200 nM

Q: What about the EC50 (U-2 OS bone osteosarcoma) of the same molecule?
A: > 10000 nM

Q: CO[C@H](/C(=N/OCC(=O)N[C@@H](Cc1c[nH]c2ccccc12)C(=O)N(C)C)[C@@H](O)[C@@H](C)O)[C@@H]1Cc2cc3cc(O[C@H]4C[C@@H](O[C@H]5C[C@@H](O)[C@H](O)C(C)O5)[C@H](O)C(C)O4)c(C)c(O)c3c(O)c2C(=O)[C@H]1O[C@H]1C[C@@H](O[C@H]2C[C@@H](O[C@H]3C[C@](C)(O)[C@H](O)C(C)O3)[C@H](O)C(C)O2)[C@H](O)C(C)O1 (stereo partly shown) [MTM (44)] was tested. Which EC50 [1] did it give?
A: 84.5 nM

Q: What about the “PC:TC32 (cellular selectivity)” value [1] of the same molecule?
A: 35

Q: And the EC50 [2]?
A: > 1470 nM

Q: Which results are given for CO[C@H](/C(=N/OCC(=O)N[C@@H](Cc1c[nH]c2ccccc12)C(=O)N(C)OC)[C@@H](O)[C@@H](C)O)[C@@H]1Cc2cc3cc(O[C@H]4C[C@@H](O[C@H]5C[C@@H](O)[C@H](O)C(C)O5)[C@H](O)C(C)O4)c(C)c(O)c3c(O)c2C(=O)[C@H]1O[C@H]1C[C@@H](O[C@H]2C[C@@H](O[C@H]3C[C@](C)(O)[C@H](O)C(C)O3)[C@H](O)C(C)O2)[C@H](O)C(C)O1 (stereo partly shown) [MTM (54)]?
A: EC50 [1]: 67 nM; PC:TC32 (cellular selectivity) [1]: 1.7; EC50 [2]: 437 nM

Q: Which results are given for CO[C@H](/C(=N/OCC(=O)N[C@@H](Cc1c[nH]c2ccccc12)c1nc(C)co1)[C@@H](O)[C@@H](C)O)[C@@H]1Cc2cc3cc(O[C@H]4C[C@@H](O[C@H]5C[C@@H](O)[C@H](O)C(C)O5)[C@H](O)C(C)O4)c(C)c(O)c3c(O)c2C(=O)[C@H]1O[C@H]1C[C@@H](O[C@H]2C[C@@H](O[C@H]3C[C@](C)(O)[C@H](O)C(C)O3)[C@H](O)C(C)O2)[C@H](O)C(C)O1 (stereo partly shown) [MTM (57)]?
A: EC50 [1]: 74 nM; PC:TC32 (cellular selectivity) [1]: 3.3; EC50 [2]: > 1680 nM; EC50 [3]: 712 nM; EC50 [4]: 3180 nM; EC50 (U-2 OS bone osteosarcoma): > 10000 nM

Q: How did the EC50 [1] turn out when CO[C@H](/C(=N/OCC(=O)N[C@H](CO)Cc1c[nH]c2ccccc12)[C@@H](O)[C@@H](C)O)[C@@H]1Cc2cc3cc(O[C@H]4C[C@@H](O[C@H]5C[C@@H](O)[C@H](O)C(C)O5)[C@H](O)C(C)O4)c(C)c(O)c3c(O)c2C(=O)[C@H]1O[C@H]1C[C@@H](O[C@H]2C[C@@H](O[C@H]3C[C@](C)(O)[C@H](O)C(C)O3)[C@H](O)C(C)O2)[C@H](O)C(C)O1 (stereo partly shown) [MTM (59)] was run?
A: 84.7 nM

Q: And the “PC:TC32 (cellular selectivity)” value [1]?
A: 4.8

Q: And the EC50 [2]?
A: 313 nM
